Assay results published in US12472185B2, “Methods for killing antibiotic tolerant bacteria” (THE PENN STATE RESEARCH FOUNDATION, priority 2020, dated 2025).

Experiments:
E. coli persister cells = experiment: ChemBridge screen for persister cell killing; type: cell-based, Escherichia coli; details: 100 μM, 24 hr
Procedure: FIG. 1. […] Escherichia coli persister cells were treated for 24 hr at 100 μM with: • 1: N-(3,4-dichlorophenyl)-N′-(3-fluorophenyl) thiourea; • 2: 2-({2-[(4-bromophenyl)amino]-4-quinazolinyl}amino)ethanol hydrochloride; • 3: 2-[(6-phenyl-2,3,4,9-tetrahydro-1H-carbazol-1-yl)amino] ethanol; • 4: 1-(3,6-dichloro-9H-carbazol-9-yl)-3-(2-methyl-1H-imidazol-1-yl)-2-propanol; • 5: N-[2-(4-fluorophenyl)ethyl]-N′-(4-nitrophenyl) thiourea; • 6: N-(4-chlorobenzyl)-N′-4-pyridinylthiourea; • 7: N′-(3,5-dichloro-2-hydroxybenzylidene)-2-oxo-4-phenyl-3-pyrrolidinecarbohydrazide; and • 8: [(5-nitro-3-phenyl-1H-indol-2-yl)methyl]amine hydrochloride (NPIMA, structure shown in inset).
To identify compounds that kill E. coli persister cells, 10,000 compounds of the DIVERset Library from ChemBridge (San Diego, CA) were tested by adding 4 μl of each (in DMSO, final concentration 100 μM) to 186 μl of LB in 96-well plates along with 10 μl of persister cells; the persister cells were added after the ChemBridge chemical since LB wakes persister cells (Kim, Yamasaki, et al., 2018). For the negative control, pure DMSO (final concentration 2 vol %) was used. The degree of inhibition was determined by the change in turbidity at 600 nm after 24 hr. The best 26 compounds were re-tested with the same conditions.
To screen directly for killing persister cells, a high-throughput approach using 96-well microtiter plates was devised that consisted of (a) washing persister cells formed from exponentially-growing cells using rifampicin pretreatment followed by ampicillin treatment, (b) adding 10 μl of the persister cells to 190 μl of LB containing one each of the 10,000 compounds of the DiverSet library dissolved in dimethyl sulfoxide (100 μM final concentration), and (c) monitoring for growth via change in turbidity for 24 hr. With this approach, we allowed for up to a 140-fold change in turbidity (0.005 could be increased to 0.69).

[1] = system: E. coli BW25113 persister cells; experiment: Survival of persister cells (rifampicin/ampicillin generated); type: cell-based, Escherichia coli; details: 100 μM
Procedure: FIG. 3. NPIMA kills Escherichia coli, Pseudomonas aeruginosa, persister cells. Survival of (a) E. coli BW25113 and (b) P. aeruginosa PA14 after treatment with NPIMA (100 μM), 5-iodoindole (5-II, 100 μM), and DMSO for 6 hr. Asterisk indicates no viable cells detected. DMSO, dimethyl sulfoxide; NPIMA, 5-nitro-3-phenyl-1H-indol-2-yl-methylamine hydrochloride.
E. coli persister cells were prepared following our previous method (Kim, Yamasaki, et al., 2018; Kwan, Valenta, Benedik, & Wood, 2013). Exponentially-growing cells (turbidity of 0.8 at 600 nm) were treated with rifampicin (100 μg/ml for 30 min) to stop transcription, washed, and any remaining nonpersister cells were lysed by ampicillin in LB (100 μg/ml for 3 hr). Cells were harvested by centrifugation (17,000 g for 1 min) and washed with 1× phosphate-buffered saline buffer (PBS, 8 g NaCl, 0.2 g KCl, 1.15 g Na2HPO4, and 0.2 g KH2PO4 per 1,000 ml) twice to remove all possible carbon sources, then resuspended with 1×PBS. Natural E. coli persister cells were generated by treating stationary-phase cells (turbidity of 6 at 600 nm) with ampicillin (100 μg/ml) for 3 hr. P. aeruginosa PA14 persister cells were prepared by incubating to the stationary phase, diluting sixfold, and treating with carbonyl cyanide m-chlorophenylhydrazone (CCCP, 50 mg/ml stock solution in dimethly sulfoxide [DMSO]) to stop adenosine triphosphate (ATP) production (200 μg/ml for 3 hr), washed twice with 0.85% NaCl (5,000 g for 10 min), and any nonpersister cells were killed by ciprofloxacin (5 μg/ml) in LB for 3 hr. Following the antibiotic treatment, bacteria were washed twice with 0.85% NaCl (5,000 g for 10 min).
For bacterial viability, cells were washed twice with 0.85% NaCl, resuspended in 1×PBS, and cell counts were determined via the drop assay (Donegan, Matyac, Seidler, & Porteous, 1991). […] Cell viability was determined via a cell counting kit (CCK-8 Kit, ab228554; Abcam), and cytotoxicity was determined via the lactate dehydrogenase (LDH) assay (LDH Assay Kit, MK401; Takara).

[2] = system: P. aeruginosa PA14 exponentially-growing cells; experiment: Killing at one MIC in PBS, NPIMA compared with cisplatin; type: cell-based, Pseudomonas aeruginosa; details: 3 hr
From the text: (§1) FIG. 7. NPIMA compared width cisplatin for killing Pseudomonas aeruginosa, Escherichia coli, and Staphylococcus aureus. Survival of exponentially-growing cells of P. aeruginosa PA14 (a), E. coli (b), and S. aureus (c) treated with one MIC of NPIMA (♦) and cisplatin (●) for 3 hr in PBS. DMSO (▴) and NaClO4 (*) were used as a negative controls. MIC, minimum inhibitory concentration; NPIMA, 5-nitro-3-phenyl-1H-indol-2-yl-methylamine hydrochloride.
(§2) For bacterial viability, cells were washed twice with 0.85% NaCl, resuspended in 1×PBS, and cell counts were determined via the drop assay (Donegan, Matyac, Seidler, & Porteous, 1991). For human cell viability, pre-cultured human cancer HT-29 cells were dispensed in 98 μl in 96-well plates with approximately 5,000 cells/well. NPIMA was added (2 μl) to produce concentrations of 5, 10, 100, and 200 μM. For controls, Triton X-100 (positive control) and DMSO (negative solvent control), were used, and the medium was used for background. Plates were incubated in a humidified incubator (37° C., 5% CO2) for 24 hr. Cell viability was determined via a cell counting kit (CCK-8 Kit, ab228554; Abcam), and cytotoxicity was determined via the lactate dehydrogenase (LDH) assay (LDH Assay Kit, MK401; Takara).

[3] = system: E. coli exponentially-growing cells; experiment: as above; type: cell-based, Escherichia coli; details: 3 hr
From the text: as §1, §2

Cl.NCc1[nH]c2ccc([N+](=O)[O-])cc2c1-c1ccccc1 [NPIMA, [(5-nitro-3-phenyl-1H-indol-2-yl)methyl]amine hydrochloride]
change of turbidity during first and second screen (E. coli persister cells): reduced the turbidity | persister killing, second screen (FIG. 1) (E. coli persister cells; hydrochloride): substantially more effective than the other compounds | persister killing, second screen (FIG. 1) (E. coli persister cells; listed as 8, hydrochloride): Most effective | time to eradicate E. coli persisters [1]: 6 h | killing of E. coli persister cells ([1]; 6 hr): eradicated | effectiveness relative to cisplatin [2]: less effective | effectiveness relative to cisplatin [3]: more effective than cisplatin
